The text below walks through data of ChEMBL document CHEMBL1201862, “PubChem BioAssay data set” (2004).

The target in one assay is Protein Rev (Human immunodeficiency virus type 1 group M subtype B (isolate WMJ22)(HIV-1), UniProt P05866). Nature of the assay: HIV-1 Rev-RRE RNA binding disruptors, dose response, biochemical, protein-RNA interaction (AID 842). Also noted: species or system Human immunodeficiency virus 1.
Another assay has as its target Cytochrome P450 3A4 (Homo sapiens, UniProt P08684). Conditions: Potency.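 Further: confirmatory qHTS run detecting inhibitors and substrates of CYP3A4.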
The target of another assay is Cytochrome P450 2C9 (Homo sapiens, UniProt P11712). The following applies: Potency.
Assay [1] is described as follows: HEp-2 cell cytotoxicity, dose response, cytotoxicity control for RSV inhibitor project, HTS (AID 2410). It counts as functional. Conditions: human respiratory syncytial virus.
Assay [2] concerns HEK293. The experiment in a line: PMA/Ionomycin induced NF-kB luciferase assay in 293- NF-kB-Luc stable cells. [Related pubchem assays: 1299, 1270, 1295, 1375, 1287, 1281, 1293, 1291, 1289, 1280, 465, 1364, 1282, 1372, 1365, 1370, 1367, 1366, 1269, 1373, 1292, 1290, 1302, 1371, 1283, 1271, 1294, 1374, 1368, 1369 ]. It is filed as functional, cell-based. The following applies: Homo sapiens.

Assay [3] concerns Vero. Nature of the assay: cells. It is filed as functional, cell-based. The following applies: Chlorocebus sabaeus.
Assay [4] concerns Vero. Nature of the assay: cells. It counts as functional. Conditions: Chlorocebus sabaeus.
The test system of assay [5] is HEK293. Nature of the assay: Cytotoxicity assay in HEK293 cells. [Related pubchem assays (depositor defined):AID1266, AID1269, AID1270, AID1271, AID1280, AID1281, AID1282, AID1283, AID1287, AID1289, AID1290, AID1291, AID1292, AID1293, AID1294, AID1295, AID1299, AID1302, AID1364, AID1365, AID1366, AID1367, AID1369, AID1370, AID1371, AID1372, AID1373, AID1374, AID1375, AID1384 …. It is filed as functional, cell-based. The following applies: Homo sapiens.

Assay [6] deals with HEK293. The experiment in a line: TNF Induced NF-kB Luciferase in 293-NF-kB-Luc Stable Cells. [Related pubchem assays: 1266, 1299, 1269, 1373, 1292, 1290, 1302, 1371, 1283, 1270, 1295, 1271, 1375, 1294, 1374, 1281, 1293, 1291, 1289, 1280, 465, 1368, 1364, 1282, 1372, 1365, 1369, 1370, 1367, 1366 ]. It is filed as functional, cell-based. Conditions: Homo sapiens.
Assay [7] addresses Luciferin 4-monooxygenase (Photinus pyralis, UniProt P08659). Nature of the assay: In vitro luciferase assay using purified luciferase. [Related pubchem assays: 1299, 1270, 1295, 1375, 1287, 1281, 1293, 1291, 1289, 1280, 465, 1364, 1282, 1372, 1365, 1370, 1367, 1366, 1266, 1373, 1292, 1290, 1302, 1371, 1283, 1271, 1294, 1374, 1368, 1369 ].
For assay [8], the system named is HEK293. Nature of the assay: PMA/Ionomycin-induced IL-8 production in HEK293- NF-kB-Luc stable cells. [Related pubchem assays: 1299, 1295, 1375, 1287, 1281, 1293, 1291, 1289, 1280, 465, 1364, 1282, 1372, 1365, 1367, 1366, 1266, 1269, 1373, 1292, 1290, 1302, 1371, 1283, 1271, 1294, 1374, 1368, 1369 ]. It counts as functional, cell-based. The following applies: Homo sapiens.

The structures appear in SMILES notation. Active and inactive are the calls of the source.

Chain of Cytochrome P450 2C9 (P11712 whole entry): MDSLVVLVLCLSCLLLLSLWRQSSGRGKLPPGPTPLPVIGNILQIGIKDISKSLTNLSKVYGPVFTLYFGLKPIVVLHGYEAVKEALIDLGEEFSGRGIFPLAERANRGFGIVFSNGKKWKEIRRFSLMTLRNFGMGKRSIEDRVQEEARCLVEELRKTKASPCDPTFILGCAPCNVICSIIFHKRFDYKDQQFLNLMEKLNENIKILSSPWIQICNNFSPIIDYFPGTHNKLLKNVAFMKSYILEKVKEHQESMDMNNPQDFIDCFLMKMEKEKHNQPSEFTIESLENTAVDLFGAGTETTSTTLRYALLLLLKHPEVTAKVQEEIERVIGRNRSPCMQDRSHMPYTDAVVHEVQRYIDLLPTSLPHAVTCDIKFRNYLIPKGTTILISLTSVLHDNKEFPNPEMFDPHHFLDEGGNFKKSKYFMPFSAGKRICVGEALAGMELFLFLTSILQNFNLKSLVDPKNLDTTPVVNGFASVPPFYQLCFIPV
Chain of Luciferin 4-monooxygenase (P08659 whole entry): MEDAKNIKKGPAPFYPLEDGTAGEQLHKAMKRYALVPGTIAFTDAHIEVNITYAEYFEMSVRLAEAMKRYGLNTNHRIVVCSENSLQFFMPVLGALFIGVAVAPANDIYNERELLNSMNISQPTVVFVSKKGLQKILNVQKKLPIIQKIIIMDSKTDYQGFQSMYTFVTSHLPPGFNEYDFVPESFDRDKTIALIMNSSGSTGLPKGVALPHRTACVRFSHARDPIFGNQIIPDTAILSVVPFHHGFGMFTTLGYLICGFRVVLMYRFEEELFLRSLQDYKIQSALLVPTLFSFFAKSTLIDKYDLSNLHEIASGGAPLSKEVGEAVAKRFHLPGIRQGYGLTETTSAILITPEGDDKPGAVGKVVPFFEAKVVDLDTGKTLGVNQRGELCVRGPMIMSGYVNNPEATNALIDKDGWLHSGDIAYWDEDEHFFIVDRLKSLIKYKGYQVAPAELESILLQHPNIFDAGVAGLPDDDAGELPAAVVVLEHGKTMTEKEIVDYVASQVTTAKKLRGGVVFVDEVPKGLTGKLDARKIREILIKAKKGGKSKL
Chain of Cytochrome P450 3A4 (P08684 whole entry): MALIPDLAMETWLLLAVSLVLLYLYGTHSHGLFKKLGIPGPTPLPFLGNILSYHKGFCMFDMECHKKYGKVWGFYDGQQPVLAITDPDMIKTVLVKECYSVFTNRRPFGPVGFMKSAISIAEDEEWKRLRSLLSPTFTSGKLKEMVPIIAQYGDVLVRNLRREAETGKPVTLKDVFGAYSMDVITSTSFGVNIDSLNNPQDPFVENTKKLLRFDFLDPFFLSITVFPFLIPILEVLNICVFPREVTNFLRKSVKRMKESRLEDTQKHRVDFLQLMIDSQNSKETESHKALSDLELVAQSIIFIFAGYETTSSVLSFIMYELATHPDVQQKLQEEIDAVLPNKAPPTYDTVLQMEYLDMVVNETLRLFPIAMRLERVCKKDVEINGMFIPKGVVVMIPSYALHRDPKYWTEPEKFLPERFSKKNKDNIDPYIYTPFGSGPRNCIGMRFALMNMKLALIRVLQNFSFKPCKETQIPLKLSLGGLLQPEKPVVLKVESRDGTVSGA
Chain of Protein Rev (P05866 whole entry): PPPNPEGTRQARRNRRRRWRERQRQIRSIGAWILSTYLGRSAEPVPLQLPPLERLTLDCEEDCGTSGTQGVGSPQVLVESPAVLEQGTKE

One may read the IC50 as the midpoint of a concentration-inhibition curve. On to `COc1ccc(CCNC(C)CCc2ccc(OC)cc2)cc1` (configuration not stated), for which the 50% inhibitory concentration (IC50) at Protein Rev is > 79.4 µM (not active).
One may read the AC50 as the midpoint of the concentration-response curve, whichever way the signal moves. For the molecule `CC1CN2C(CCC(C)C2c2ccc(Br)cc2)C(=O)O1` (configuration not stated), the AC50 on Cytochrome P450 3A4 is 5.01 µM (inconclusive); on Cytochrome P450 2C9, 3.98 µM (inconclusive).
The CC50 is the concentration giving 50% cytotoxicity. As usually defined, the EC50 is the concentration giving half of the maximal effect. As to `Cc1oc(-c2ccccc2Cl)nc1CSCC(=O)N1CCCC1`, the CC50 was 16 µM (active) in assay [1] and > 25 µM (active) with Vero [4]. The EC50 in the assay with HEK293 [2] is < 4 µM (active); in the assay with HEK293 [5] it was > 8 µM (inactive); in the assay with HEK293 [6] it was > 8 µM (not active); in [7] it was > 8 µM (not active); in the assay on HEK293 [8], 11.1 µM (not active). Besides, the figures for the IC50 with Vero [3] and in the assay “cells” were 2.28 µM (active) and 11 µM (active), respectively.
